Measured values published in patent US11377425B1, “Small molecule modulators of IL-17” (LEO Pharma A/S, priority 2018, dated 2022).

The compounds below were run against T1, human IL-17AA (Homo sapiens, UniProt Q16552) (assay: IL-8 release assay in human epithelial keratinocytes adult (HEKa)). Conditions: HEKa cells, 3 ng/mL HEK-human IL-17AA + 10 ng/mL human TNFalpha; read-out: Rel EC50 IL-8 release assay.
T1 construct: host or cells: HEK (human embryonic kidney) cells
T1 sequence (Q16552 24-155): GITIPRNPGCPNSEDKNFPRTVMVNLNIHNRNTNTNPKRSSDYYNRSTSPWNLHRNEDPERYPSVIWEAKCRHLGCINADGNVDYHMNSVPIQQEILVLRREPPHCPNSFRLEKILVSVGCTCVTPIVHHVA
Format: cell-based
Protocol: Example 138: IL-8 Release Assay in Human Epithelial Keratinocytes Adult (HEKa)
Keratinocytes were seeded at 3500 cells/well in 384-well ViewPlates (Perkin Elmer) in Epilife medium (Thermo Fisher) containing human keratinocyte growth supplement (HKGS) without hydrocortisone and incubated in a humid incubator at 37° C. 5% CO2, overnight. The following day growth medium was removed and 25 μl fresh Epilife medium added. 75 nL test compound in 100% DMSO was added into each well reserved for test compounds, by the use of acoustic pipetting. The remaining wells received an equal volume of DMSO only, as vehicle control, or terfenadine in DMSO, as a positive control for any cytotoxic compounds. Subsequently, another 25 μL Epilife medium was added to each well. Finally, wells containing test compounds and wells prepared to yield maximum stimulation received […] of 9 ng/mL recombinant, human embryonic kidney cell (HEK)-derived human IL-17AA+30 ng/mL human TNF-alpha, in Epilife medium. Wells prepared to define 100% inhibition of IL-17 effects received 25 μL of 30 ng/mL human TNF-alpha alone, in Epilife medium. Final concentrations were 3 ng/mL HEK-human IL-17AA+10 ng/mL human TNFalpha (maximum stimulation) and 10 ng/mL human TNFalpha alone (100% inhibition, Emax), respectively. Cells were incubated for 68-72 hours in the incubator. IL-8 released from the cells was measured by the use of a commercial homogenous time-resolved fluorescence (HTRF) assay (CisBio). 2 μL cell culture supernatant was transferred to a 384-well Proxiplate. 5 μL HTRF reagent was added and the plates incubated sealed in the dark for 3-22 hours at room temperature. Time-resolved fluorescence was read at 665 vs 620 nm, with excitation at 320 nm, and IL-8 levels calculated as percent of controls. Reduction of the amount of secreted IL-8 indicates decreased IL-17 signaling. Concentration response curves were fitted by the use of a four-parameter logistic equation. Relative IC50 and Emax were reported from curves showing acceptable fit (r^2>0.9). Cytotoxicity was measured in the cell-containing Viewplates following addition of 7 μL PrestoBlue (Thermo Fisher) and incubation for 2.5-3 hours at room temperature, by measuring fluorescence at 615 nm (excitation at 535 nm). Fluorescence was directly proportional to the amount of metabolic activity. Reduction of fluorescence signal indicated cytotoxicity.
Compounds of the present invention were tested in the IL-8 release assay in human epithelial keratinocytes.
Compounds having a Relative EC50 of X; wherein X<100 nM; are indicated with *
Compounds having a Relative EC50 of X; wherein 100 nM<X<1000 nM; are indicated with **
Compounds having a Relative EC50 of X; wherein 1000 nM<X; are indicated with ***

Compared with Cc1n[nH]c(C)c1-c1ccc(NC(=O)[C@@H](NC(=O)c2ccnn2C(C)CO)C2CCCCC2)cc1 (single isomer, unassigned) [Example 105], Cc1n[nH]c(C)c1-c1ccc(NC(=O)C(NC(=O)c2ccnn2C(C)C)C2CCCCCCC2)cc1 (single isomer, unassigned) [Example 152, N-[1-cyclooctyl-2-[4-(3,5-dimethyl-1H-pyrazol-4-yl)anilino]-2-oxo-ethyl]-2-(1-methylethyl)pyrazole-3-carboxamide] is lower in EC50: 100 to 1000 nM for the first, < 100 nM for the second. The second is the more potent here.

CCn1nccc1C(=O)N[C@H](C(=O)Nc1ccc(-c2c(C)n[nH]c2C)cc1)C1C2CC3CC(C2)CC1C3 (stereo partly drawn) [Example 201, N-[(1S)-1-(2-adamantyl)-2-[4-(3,5-dimethyl-1H-pyrazol-4-yl)anilino]-2-oxo-ethyl]-2-ethyl-pyrazole-3-carboxamide] and Cc1n[nH]c(C)c1-c1ccc(NC(=O)[C@@H](NC(=O)c2ccnn2C(C)CO)C2C3CC4CC(C3)CC2C4)cc1 (single isomer, unassigned) [Example 187] cannot be ordered by EC50: < 100 nM for the first, < 100 nM for the second.

First: Cc1n[nH]c(C)c1-c1ccc(NC(=O)[C@@H](NC(=O)c2ccnn2CC(C)O)C(C2CC2)C2CC2)cc1 (stereo partly drawn) [Example 388, N-[(1S)-1-(dicyclopropylmethyl)-2-[4-(3,5-dimethyl-1H-pyrazol-4-yl)anilino]-2-oxo-ethyl]-2-(2-hydroxypropyl)pyrazole-3-carboxamide]
Second: Cc1n[nH]c(C)c1-c1ccc(NC(=O)[C@@H](NC(=O)c2ccnn2CCC(C)O)C(C2CC2)C2CC2)cc1 (stereo partly drawn) [Example 185, N-[(1S)-1-(dicyclopropylmethyl)-2-[4-(3,5-dimethyl-1H-pyrazol-4-yl)anilino]-2-oxo-ethyl]-2-(3-hydroxybutyl)pyrazole-3-carboxamide]
The EC50 of the first is higher: 100 to 1000 nM for the first, < 100 nM for the second. The second is the more potent here.

Cc1n[nH]c(C)c1-c1ccc(NC(=O)[C@@H](NC(=O)c2ccnn2CCO)C(C2CCC2)C2CCC2)cc1 [Example 122] and Cc1n[nH]c(C)c1-c1ccc(NC(=O)[C@@H](NC(=O)c2ccnn2C(C)CO)C(C2CCC2)C2CCC2)cc1 (single isomer, unassigned) [Example 123] cannot be ordered by EC50: < 100 nM for the first, < 100 nM for the second.

First: Cc1n[nH]c(C)c1-c1ccc(NC(=O)[C@@H](NC(=O)c2ccnn2C)[C@H]2CCCc3ccccc32)cc1 [Example 81, N-[(1S)-2-[4-(3,5-dimethyl-1H-pyrazol-4-yl)anilino]-2-oxo-1-[(1S)-tetralin-1-yl]ethyl]-2-methyl-pyrazole-3-carboxamide]
Second: Cc1n[nH]c(C)c1-c1ccc(NC(=O)[C@H](Cc2ccccc2Cl)NC(=O)c2ccnn2C)cc1 [Example 25]
The EC50 of the first is lower: < 100 nM for the first, > 1000 nM for the second. The first is the more potent here.

First: Cc1n[nH]c(C)c1-c1ccc(NC(=O)[C@@H](NC(=O)Cn2ccnc2C)C2CCCCC2)cc1 [Example 53, (2S)-2-cyclohexyl-N-[4-(3,5-dimethyl-1H-pyrazol-4-yl)phenyl]-2-[[2-(2-methylimidazol-1-yl)acetyl]amino]acetamide]
Second: Cc1n[nH]c(C)c1-c1ccc(NC(=O)[C@@H](NC(=O)OCc2cccnc2)C2CCCCC2)cc1 [Example 430, 3-pyridylmethyl N-[(1S)-1-cyclohexyl-2-[4-(3,5-dimethyl-1H-pyrazol-4-yl)anilino]-2-oxo-ethyl]carbamate]
The EC50 of the first is higher: > 1000 nM for the first, 100 to 1000 nM for the second. The second is the more potent here.

Cc1n[nH]c(C)c1-c1ccc(NC(=O)[C@@H](NC(=O)c2ccnn2C2CCC2)C(C2CC2)C2CC2)cc1 [Example 114, 2-cyclobutyl-N-[(1S)-1-(dicyclopropylmethyl)-2-[4-(3,5-dimethyl-1H-pyrazol-4-yl)anilino]-2-oxo-ethyl]pyrazole-3-carboxamide] and CCC(C)n1nccc1C(=O)N[C@H](C(=O)Nc1ccc(-c2c(C)n[nH]c2C)cc1)C(C1CC1)C1CC1 (stereo partly drawn) [Example 128, N-[(1S)-1-(dicyclopropylmethyl)-2-[4-(3,5-dimethyl-1H-pyrazol-4-yl)anilino]-2-oxo-ethyl]-2-sec-butyl-pyrazole-3-carboxamide] cannot be ordered by EC50: < 100 nM for the first, < 100 nM for the second.

Cn1cncc1-c1ccc(NC(=O)[C@@H](NC(=O)OC(C)(C)C)C(C2CCCCC2)C2CCCC2)cc1 (single isomer, unassigned) [Example 312] and Cn1cncc1-c1ccc(NC(=O)[C@@H](NC(=O)OC(C)(C)C)C2CCC2)cc1 [Example 92, tert-butyl N-[(1S)-1-cyclobutyl-2-[4-(3-methylimidazol-4-yl)anilino]-2-oxo-ethyl]carbamate] cannot be ordered by EC50: > 1000 nM for the first, > 1000 nM for the second.

First: Cc1ncn(C)c1-c1ccc(NC(=O)C(NC(=O)OC(C)(C)C)C2CCC(F)(F)CC2)cc1 (single isomer, unassigned) [Example 85, tert-butyl N-[1-(4,4-difluorocyclohexyl)-2-[4-(3,5-dimethylimidazol-4-yl)anilino]-2-oxo-ethyl]carbamate]
Second: CC(C)n1nccc1C(=O)N[C@H](C(=O)Nc1ccc(-c2c(C(F)(F)F)ncn2C)cc1)C1CCCCC1 [Example 371A, N-[(1S)-1-cyclohexyl-2-[4-[3-methyl-5-(trifluoromethyl)imidazol-4-yl]anilino]-2-oxo-ethyl]-2-isopropyl-pyrazole-3-carboxamide]
The EC50 of the first is higher: > 1000 nM for the first, 100 to 1000 nM for the second.

Cc1n[nH]c(C)c1-c1ccc(NC(=O)[C@H](Cc2ccc(O)cc2)NC(=O)c2ccnn2C)cc1 [Example 45, N-[(1S)-2-[4-(3,5-dimethyl-1H-pyrazol-4-yl)anilino]-1-[(4-hydroxyphenyl)methyl]-2-oxo-ethyl]-2-methyl-pyrazole-3-carboxamide] and Cc1n[nH]c(C)c1-c1ccc(NC(=O)[C@H](CC2CCC(F)(F)CC2)NC(=O)c2ccnn2C)cc1 [Example 253, N-[(1S)-1-[(4,4-difluorocyclohexyl)methyl]-2-[4-(3,5-dimethyl-1H-pyrazol-4-yl)anilino]-2-oxo-ethyl]-2-methyl-pyrazole-3-carboxamide] cannot be ordered by EC50: > 1000 nM for the first, > 1000 nM for the second.

Cc1[nH]nc(C(C)C)c1-c1ccc(NC(=O)[C@@H](NC(=O)c2ccnn2C(C)C)C(C2CC2)C2CC2)cc1 [Example 386, N-[(1S)-1-(dicyclopropylmethyl)-2-[4-(3-isopropyl-5-methyl-1H-pyrazol-4-yl)anilino]-2-oxo-ethyl]-2-isopropyl-pyrazole-3-carboxamide] and Cc1n[nH]c(C)c1-c1ccc(NC(=O)[C@@H](NC(=O)c2ccnn2C(C)CCO)C(C2CC2)C2CC2)cc1 (single isomer, unassigned) [Example 225] cannot be ordered by EC50: < 100 nM for the first, < 100 nM for the second.

Cc1n[nH]c(C)c1-c1ccc(NC(=O)[C@@H](NC(=O)c2ccnn2C(C)C)[C@H]2CCCC3(CC3)C2)cc1 [Example 41, N-[(1S)-2-[4-(3,5-dimethyl-1H-pyrazol-4-yl)anilino]-2-oxo-1-[(7S)-spiro[2.5]octan-7-yl]ethyl]-2-isopropyl-pyrazole-3-carboxamide] and Cc1n[nH]c(C)c1-c1ccc(NC(=O)[C@@H](NC(=O)c2ccnn2C)[C@H]2CCCC3(CC3)C2)cc1 [Example 250, N-[(1S)-2-[4-(3,5-dimethyl-1H-pyrazol-4-yl)anilino]-2-oxo-1-[(7S)-spiro[2.5]octan-7-yl]ethyl]-2-methyl-pyrazole-3-carboxamide] cannot be ordered by EC50: < 100 nM for the first, < 100 nM for the second.

First: CCOc1n[nH]c(C)c1-c1ccc(NC(=O)[C@@H](NC(=O)c2ccnn2C)C2CCCCC2)cc1 [Example 359, N-[(1S)-1-cyclohexyl-2-[4-(5-ethoxy-3-methyl-1H-pyrazol-4-yl)anilino]-2-oxo-ethyl]-2-methyl-pyrazole-3-carboxamide]
Second: Cc1n[nH]c(C)c1-c1ccc(NC(=O)[C@@H](NC(=O)c2ccnn2C(C)C)[C@H]2CC[C@H](C)CC2)cc1O [Example 417, N-[(1S)-2-[4-(3,5-dimethyl-1H-pyrazol-4-yl)-3-hydroxy-anilino]-1-(trans-4-methylcyclohexyl)-2-oxo-ethyl]-2-isopropyl-pyrazole-3-carboxamide]
The EC50 of the first is higher: 100 to 1000 nM for the first, < 100 nM for the second.

In the case of Cn1cncc1-c1ccc(NC(=O)C(NC(=O)OC(C)(C)C)C(c2ccccc2)C2CCC2)cc1 (single isomer, unassigned) [Example 310, tert-butyl N-[1-[cyclobutyl(phenyl)methyl]-2-[4-(3-methylimidazol-4-yl)anilino]-2-oxo-ethyl]carbamate], the EC50 is reported as > 1000 nM.
